US10668047B2, “Aziridine containing DNA alkylating agents” (priority 2015, dated 2020)
Like-named read-outs stand apart in the source and are kept apart here.

Test system: H460 non-cell lung cancer human tumor cell line
Experiment: In vitro human tumor cell line cytotoxicity (proliferation) assay, AlamarBlue
Assay type: cell-based
Procedure: IC50 values are reported in micromolar and result from exposure of compound at various concentrations for 2 hrs followed by a wash step and addition of fresh media followed by growth and cell viability staining and comparison to a media only treated control.
Specifically, exponentially growing cells are seeded at a density of 4×10^3 cells per well in a 96 well plate and incubated at 37° C. in 5% CO2, 95% air and 100% relative humidity for 24 hours prior to addition of test compounds. Compounds are solubilized in 100% DMSO at 200 times the desired final test concentration. At the time of drug addition, compounds are further diluted to 4 times the desired final concentration with complete medium. Aliquots of 50 μl of compound at specified concentrations are added to microtiter wells already containing 150 μl of medium, resulting in the final drug concentration reported. After drug addition, the plates are incubated for an additional 2 hours at 37° C., 5% CO2, 95% air, and 100% relative humidity, then the drug is washed off and fresh medium is added and the plates are incubated for addition 70 hrs at 37° C., 5% CO2, 95% air and 100% relative humidity. At the end of this incubation, the viable cells are quantified using the AlamarBlue assay. The drug concentration resulting in growth inhibition of 50% (IC50) is calculated using Prism software (Irvine, Calif.), and the results are listed in the table.

[1] = Homo sapiens, NCI-H460, H460 cells, under air, 2 hrs exposure, wash, then 70 hrs growth, read-out: IC50 (air)
[2] = Homo sapiens, NCI-H460, H460 cells, under nitrogen, 2 hrs exposure, wash, then 70 hrs growth, read-out: IC50 (N2)
[3] = Homo sapiens, NCI-H460, read-out: IC50 (N2), H460 cells, under nitrogen, 2 hrs exposure, wash, then 70 hrs growth
[4] = Homo sapiens, NCI-H460, read-out: IC50 (air), H460 cells, under air, 2 hrs exposure, wash, then 70 hrs growth

SMILES | IC50 [1] | IC50 [2] | also measured
Cn1c([N+](=O)[O-])cnc1C(OP(=O)(N1CC1)N1CC1)C1CC1 (stereo not shown) [compound 2520] | 20 µM | 8.8 µM | 
O=[N+]([O-])c1ccccc1C(OP(=O)(N1CC1)N1CC1)c1ccccc1 (stereo not shown) [compound 2563] | 15 µM | 3.2 µM | 
CC(OP(=O)(N1CC1)N1CC1)c1ccc([N+](=O)[O-])c(F)c1 (stereo not shown) [compound 2678] | 32 µM | 0.4 µM | 
CC(OP(=O)(N1CC1)N1CC1)c1ccc([N+](=O)[O-])c(-c2cccs2)c1 (stereo not shown) [compound 2783] | 51 µM | 1.7 µM | 
CCN(CC)c1cc(C(C)OP(=O)(N2CC2)N2CC2)ccc1[N+](=O)[O-] (stereo not shown) [compound 2701] | 66 µM | 1.3 µM | 
CC1=NCCN1c1cc(C(C)OP(=O)(N2CC2)N2CC2)ccc1[N+](=O)[O-] (stereo not shown) [compound 2722] | 5 µM | 0.9 µM | 
Cc1cc([N+](=O)[O-])ccc1COP(=O)(N1CC1)N1CC1 [compound 2556] | 17 µM | 0.7 µM | 
C=Cc1nc([N+](=O)[O-])n(C)c1COP(=O)(NCCBr)N1CC1 (stereo not shown) [compound 2130] |  |  | IC50 [3]: 0.005 µM; IC50 [4]: 1.3 µM
CC(C)C(OP(=O)(N1CC1)N1CC1)c1ncc([N+](=O)[O-])n1C1CCCC1 (stereo not shown) [compound 2619] | 99 µM | 2.3 µM | 
CC(OP(=O)(N1CC1)N1CC1)c1ccc([N+](=O)[O-])c(N2CCN(Cc3cnc([N+](=O)[O-])n3C)CC2)c1 (stereo not shown) [compound 2756] |  |  | IC50 [3]: 2.8 µM; IC50 [4]: 45 µM
CC(OP(=O)(N1CC1)N1CC1)c1ccc([N+](=O)[O-])c(N2CCN(C(C)C)CC2)c1 (stereo not shown) [compound 2751] | 36 µM | 1.7 µM | 
Cn1c([N+](=O)[O-])cnc1C(OP(=O)(NCCBr)NCCBr)C1CC1 (stereo not shown) [compound 2519] |  |  | IC50 [3]: > 500 µM; IC50 [4]: > 500 µM
Cn1c([N+](=O)[O-])cnc1C(OP(=O)(N1CC1)N1CC1)C1CCCC1 (stereo not shown) [compound 2561] | 29 µM | 0.2 µM | 
Cc1cccc([N+](=O)[O-])c1C(C)OP(=O)(N1CC1)N1CC1 (stereo not shown) [compound 2615] | 350 µM | 320 µM | 
CC(OP(=O)(N1CC1)N1CC1)c1ccc([N+](=O)[O-])c(-n2cccn2)c1 (stereo not shown) [compound 2748] | 38 µM | 0.3 µM | 
Cc1nccn1-c1cc(C(C)OP(=O)(N2CC2)N2CC2)ccc1[N+](=O)[O-] (stereo not shown) [compound 2738] | 20 µM | 0.2 µM | 
CC(C)C(OP(=O)(N1CC1)N1CC1)c1ncc([N+](=O)[O-])n1CCN1CCOCC1 (stereo not shown) [compound 2544] | 45 µM | 0.2 µM | 
CC(OP(=O)(N1CC1)N1CC1)c1ccc([N+](=O)[O-])c(N)c1 (stereo not shown) [compound 2692] | 6.2 µM | 2.7 µM | 
Cc1ccc(-c2cc(C(C)OP(=O)(N3CC3)N3CC3)ccc2[N+](=O)[O-])cc1 (stereo not shown) [compound 2789] | 36 µM | 2.4 µM | 
O=[N+]([O-])c1ccc(COP(=O)(N2CC2)N2CC2)cc1F [compound 2666] | 24 µM | 2 µM | 

SMILES | IC50 [1] | IC50 [2] | also measured
CCCC(OP(=O)(N1CC1)N1CC1)c1c(C)cccc1[N+](=O)[O-] (stereo not shown) [compound 2610] | 350 µM | 51 µM | 
O=[N+]([O-])c1ccccc1COP(=O)(N1CC1)N1CC1 [compound 2578] | 28 µM | 6 µM | 
CC(OP(=O)(N1CC1)N1CC1)c1ccc([N+](=O)[O-])c(-c2ccccc2)c1 (stereo not shown) [compound 2785] | 47 µM | 1.6 µM | 
Cc1ccc(COP(=O)(N2CC2)N2CC2)c([N+](=O)[O-])c1 [compound 2590] | 15 µM | 2.9 µM | 
CC(OP(=O)(N1CC1)N1CC1)c1cc(N2CCN(C)CC2)c([N+](=O)[O-])cc1F (stereo not shown) [compound 2732] | 23 µM | 0.2 µM | 
CC(OP(=O)(N1CC1)N1CC1)c1ccc([N+](=O)[O-])c(-n2ccc3ccccc32)c1 (stereo not shown) [compound 2734] | 2.5 µM | 1.6 µM | 
O=[N+]([O-])c1ccc(C(OP(=O)(N2CC2)N2CC2)C(F)(F)F)o1 (stereo not shown) [compound 2139] | 0.3 µM | 0.004 µM | 
CC(OP(=O)(N1CC1)N1CC1)c1ccc([N+](=O)[O-])c(N2CCCC2)c1 (stereo not shown) [compound 2708] | 20 µM | 3 µM | 
CC(OP(=O)(N1CC1)N1CC1)c1ccc([N+](=O)[O-])c(N2CCCCC2)c1 (stereo not shown) [compound 2696] | 310 µM | 7.4 µM | 
CC(OP(=O)(N1CC1)N1CC1)c1ccc([N+](=O)[O-])c(N(C)O)c1 (stereo not shown) [compound 2707] | 0.2 µM | 0.1 µM | 
O=[N+]([O-])c1ccc2c(c1)CCCC2OP(=O)(N1CC1)N1CC1 (stereo not shown) [compound 2676] |  |  | IC50 (H460 cells, under air, 2 hrs exposure, wash, then 70 hrs growth, read-out: IC50 (air)): 3.7 µM; IC50 (H460 cells, under nitrogen, 2 hrs exposure, wash, then 70 hrs growth, read-out: IC50 (N2)): 0.1 µM
CC(C)Oc1cc([N+](=O)[O-])ccc1COP(=O)(N1CC1)N1CC1 [compound 2599] | 1.5 µM | 0.08 µM | 
COCCN(CCOC)c1cc(C(C)OP(=O)(N2CC2)N2CC2)ccc1[N+](=O)[O-] (stereo not shown) [compound 2753] | 19 µM | 3.2 µM | 
COc1cc(C(C)OP(=O)(N2CC2)N2CC2)ccc1[N+](=O)[O-] (stereo not shown) [compound 2620] | 7.4 µM | 2.5 µM | 
Cc1cccc([N+](=O)[O-])c1COP(=O)(N1CC1)N1CC1 [compound 2588] | 10 µM | 1.3 µM | 
CC(OP(=O)(N1CC1)N1CC1)c1cc(F)c([N+](=O)[O-])cc1F (stereo not shown) [compound 2721] | 9 µM | 0.02 µM | 
CCC(OP(=O)(N1CC1)N1CC1)c1ncc([N+](=O)[O-])n1C (stereo not shown) [compound 2662] | 22 µM | 0.03 µM | 
Cn1c([N+](=O)[O-])nc(-c2ccco2)c1COP(=O)(N1CC1)N1CC1 [compound 2141] | 0.5 µM | 0.08 µM | 
Cc1cc([N+](=O)[O-])ccc1C(C)OP(=O)(N1CC1)N1CC1 (stereo not shown) [compound 2611] | 14 µM | 0.2 µM | 
O=[N+]([O-])c1ccc(C(CC(F)(F)F)OP(=O)(N2CC2)N2CC2)cc1 (stereo not shown) [compound 2690] | 99 µM | 3.2 µM | 

SMILES | IC50 [1] | IC50 [2] | also measured
Cc1ccccc1-c1cc(C(C)OP(=O)(N2CC2)N2CC2)ccc1[N+](=O)[O-] (stereo not shown) [compound 2800] | 30 µM | 1.3 µM | 
CC(OP(=O)(N1CC1)N1CC1)c1ccc([N+](=O)[O-])c(N(C)C)c1 (stereo not shown) [compound 2680] | 110 µM | 2.6 µM | 
CCCCn1c([N+](=O)[O-])cnc1COP(=O)(N1CC1)N1CC1 [compound 2594] | 7.4 µM | 0.15 µM | 
CC(OP(=O)(N1CC1)N1CC1)c1c([N+](=O)[O-])ncn1C (stereo not shown) [compound 2560] | 40 µM | 3.7 µM | 
O=[N+]([O-])c1ccc(COP(=O)(N2CC2)N2CC2)c(Cl)c1 [compound 2576] | 1.8 µM | 0.1 µM | 
CC(OP(=O)(N1CC1)N1CC1)c1ccc([N+](=O)[O-])c(N2CCC3(CC2)OCCO3)c1 (stereo not shown) [compound 2709] | 26 µM | 2.4 µM | 
CC(OP(=O)(N1CC1)N1CC1)c1cc(-n2nnc3ccccc32)c([N+](=O)[O-])cc1F (stereo not shown) [compound 2787] | 2.3 µM | 0.02 µM | 
CC(OP(=O)(N1CC1)N1CC1)c1cc(-n2cncc2[N+](=O)[O-])c([N+](=O)[O-])cc1F (stereo not shown) [compound 2743] |  |  | IC50 [3]: 0.2 µM; IC50 [4]: 3.7 µM
CNc1cc(C(C)OP(=O)(N2CC2)N2CC2)ccc1[N+](=O)[O-] (stereo not shown) [compound 2679] | 34 µM | 2.9 µM | 
CCC(CC)C(OP(=O)(N1CC1)N1CC1)c1ncc([N+](=O)[O-])n1C (stereo not shown) [compound 2609] | 370 µM | 0.4 µM | 
O=[N+]([O-])c1cc(Cl)ccc1COP(=O)(N1CC1)N1CC1 [compound 2592] | 3.3 µM | 0.7 µM | 
CC(OP(=O)(N1CC1)N1CC1)c1ccc([N+](=O)[O-])c(-n2ccc3ncccc32)c1 (stereo not shown) [compound 2763] | 5 µM | 0.1 µM | 
C=CCCn1c([N+](=O)[O-])cnc1C(OP(=O)(N1CC1)N1CC1)C(C)C (stereo not shown) [compound 2574] | 29 µM | 0.1 µM | 
CC(OP(=O)(N1CC1)N1CC1)c1ccc([N+](=O)[O-])c(-c2ccc(C#N)cc2)c1 (stereo not shown) [compound 2775] | 2.5 µM | 0.3 µM | 
CC(OP(=O)(N1CC1)N1CC1)c1ccc([N+](=O)[O-])c(C#N)c1 (stereo not shown) [compound 2710] | 3 µM | 0.03 µM | 
Cn1c([N+](=O)[O-])cnc1C(OP(=O)(N1CC1)N1CC1)C(F)(F)F (stereo not shown) [compound 2145] | 170 µM | 0.4 µM | 
Cc1nccn1-c1cc(C(C)OP(=O)(N2CC2)N2CC2)c(F)cc1[N+](=O)[O-] (stereo not shown) [compound 2755] | 4.4 µM | 0.03 µM | 
Cn1c(C(OP(=O)(N2CC2)N2CC2)C(F)(F)F)cnc1[N+](=O)[O-] (stereo not shown) [compound 2118] | 6.2 µM | 0.01 µM | 
O=[N+]([O-])c1ccc2c(c1)CCC2OP(=O)(N1CC1)N1CC1 (stereo not shown) [compound 2652] | 2.2 µM | 0.02 µM | 
